{
  "source": "patent US7833986B2",
  "about": "“Anti-inflammatory peptides” (Salpep Biotechnology Inc., priority 2002, dated 2010)",
  "origin": "cited, not measured here",
  "system": "lipopolysaccharide-induced hypotension",
  "settings": "Mathison et al. (1997)",
  "data": [
    {"substance": "submandibular gland peptide-T [SGP-T]", "values": [
      {"measurement": "doses that inhibit lipopolysaccharide-induced hypotension", "value": "≥ 1", "unit": "µg/kg"}
    ]}
  ]
}
